Assays:
[1] = tested on: relapsing multiple sclerosis (RMS) patients; experiment: Brain volume loss in phase 3 RMS studies SUNBEAM and RADIANCE Part B vs interferon beta-1a; assay type: in vivo, human
Source text: As mentioned above, ozanimod is in clinical development for treatment of relapsing multiple sclerosis (RMS). Brain volume loss (BVL) correlates with and predicts disability and is thought to be a marker of long-term disease progression and cognitive impairment. Accordingly, reducing BVL is an important treatment goal. In this example, BVL results are reported from two similarly-designed phase 3 RMS studies.
SUNBEAM (N=1346) and RADIANCE Part B (N=1320) were randomised, double-blind, double-dummy, active-controlled, parallel-group studies of the efficacy (primary outcome annualised relapse rate) and safety of once-daily ozanimod 1 mg or 0.5 mg vs intramuscular interferon beta-1a (IFNβ-1a) 30 μg for ≥12 months (m) (SUNBEAM) or 24 m (RADIANCE). BVL was evaluated using the Jacobian integration method to assess changes in normalised whole brain, cortical grey matter, and thalamic volumes. Rank analysis of covariance was performed with treatment effects reported as percent reductions in median percent BVL from baseline.

Recombinant human MAO-B = biological target: T1, Recombinant human MAO-B (Homo sapiens, UniProt P27338); experiment: MAO-B inhibition, conversion of kynuramine to 4-hydroxyquinoline; assay type: biochemical
T1 construct: purchased Sigma-Aldrich M7441; host or cells: baculovirus infected insect cells
T1 sequence (P27338 1-520): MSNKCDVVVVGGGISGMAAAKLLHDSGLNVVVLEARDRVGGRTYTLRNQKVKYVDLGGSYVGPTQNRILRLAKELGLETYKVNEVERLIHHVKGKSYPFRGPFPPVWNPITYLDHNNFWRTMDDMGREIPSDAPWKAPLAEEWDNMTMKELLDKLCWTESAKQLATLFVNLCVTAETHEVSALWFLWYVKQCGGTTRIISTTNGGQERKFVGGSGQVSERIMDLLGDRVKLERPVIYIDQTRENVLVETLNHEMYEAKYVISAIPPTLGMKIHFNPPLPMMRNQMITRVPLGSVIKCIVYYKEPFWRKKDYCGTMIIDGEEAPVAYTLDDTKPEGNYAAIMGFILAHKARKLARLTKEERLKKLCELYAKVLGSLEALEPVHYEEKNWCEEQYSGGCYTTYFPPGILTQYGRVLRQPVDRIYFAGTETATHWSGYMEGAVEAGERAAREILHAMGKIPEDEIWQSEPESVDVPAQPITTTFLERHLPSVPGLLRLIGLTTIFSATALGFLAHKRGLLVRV
Protocol: The effect of a S1P receptoragonist on MAO-B activity can be assessed by measuring the inhibition of conversion of substrate kynuramine to 4-hydroxyquinoline as described in Example 4.
Compound 1 and Compound 2-S were evaluated for their ability to inhibit MAO-A and MAO-B. Inhibition of the conversion of kynuramine, a substrate for MAO-A and MAO-B, to 4-hydroxyquinoline was used to assess the inhibitory potential of Compound 1 and Compound 2-S. Recombinant human MAO-A (product number M7316) and MAO-B (product number M7441) expressed in baculovirus infected insect cells were obtained from Sigma-Aldrich, Saint Louis, Mo. USA were used as a source of purified MAOs.
Recombinant MAO-A (0.01 mg/mL, final concentrations) and MAO-B (0.02 mg/mL, final concentration) were diluted to desired concentrations in 100 mM potassium phosphate buffer (pH 7.4) containing 5 mM MgCl2. The diluted protein fractions were preincubated with various concentrations of each test compound at 37° C. for 2 min. The concentrations used were 100, 33, 10, 3.3, 1.0, 0.33 μM and acetonitrile/DMSO as vehicle control for MAO-A and 1.0, 0.3, 0.1, 0.03, 0.01, 0.003 μM and acetonitrile/DMSO as vehicle control for MAO-B. The reaction was started by addition of kynuramine to the incubation mixture. The final concentration of kynuramine was 40 μM for MAO-A and 25 μM for MAO-B. The total incubation volume was 0.250 mL. This concentration was selected to be close to the Km values of MAO-A (Km 42 μM) and MAO-B (Km 26 μM). After 10 min of incubation, aliquots (100 μL) of the reaction mixture were taken and added to 200 μL acetonitrile containing 0.5 μM IS (acetaminophen). The reaction product, 4-hydroxyquinoline was analyzed by LC-MS/MS as described below.
MS characterization and detection of kynuramine and 4-hydroxyquinoline was performed using ABI 4000 Sciex QTrap mass spectrometer utilizing a Turbo Spray. The mass spectrometer was controlled by Analyst v1.6.2. The ESI was operated in a positive ion mode and the experimental parameters were set as follows: ion spray voltage, 2000; source temperature, 550° C.; curtain gas, 20; collision gas, medium ion source gas 1, 55; ion source gas 2, 50. […]
The gradient system was used to separate the analytes with a flow rate of 0.5 ml/min using mobile phase A, water containing 0.1% formic acid and mobile phase B, acetonitrile containing 0.1% formic acid. […] The analytes were monitored using multiple reaction monitoring and the ion transitions (Q1/Q3) were as follows: 4-hydroxyquinoline 146/104 (collision energy, CE was 27; declustering potential, DP, 50, and IS (acetaminophen), 152/110 (collision energy, CE was 27; declustering potential, DP, 50). All data were analyzed using AB Sciex Analyst v1.6.2 software.

[2] = RADIANCE (24 m), 1 mg once daily, p<0.0001
[3] = SUNBEAM (12 m), 1 mg once daily, p<0.0001

| MAO-B inhibition (in words) (Recombinant human MAO-B) | IC50 (Recombinant human MAO-B; kynuramine 25 μM, 10 min incubation) [nM] | SMILES | slowing of cortical grey matter loss with respect to IFN ([1]; RADIANCE (24 m), 0.5 mg once daily, p<0.0001) [%] | slowing of whole BVL vs IFN ([1]; RADIANCE (24 m), 0.5 mg once daily, p=0.0001) [%] | slowing of thalamic BVL vs IFN ([1]; RADIANCE (24 m), 0.5 mg once daily, p=0.0008) [%] | slowing of cortical grey matter loss with respect to IFN [1, 2] [%] | slowing of thalamic BVL vs IFN [1, 2] [%] | slowing of whole BVL vs IFN [1, 2] [%] | slowing of cortical grey matter loss with respect to IFN ([1]; SUNBEAM (12 m), 0.5 mg once daily, p<0.0001) [%] | slowing of thalamic BVL vs IFN ([1]; SUNBEAM (12 m), 0.5 mg once daily, p=0.0001) [%] | slowing of whole BVL vs IFN ([1]; SUNBEAM (12 m), 0.5 mg once daily, p=0.0615) [%] | slowing of cortical grey matter loss with respect to IFN [1, 3] [%] | slowing of thalamic BVL vs IFN [1, 3] [%] | slowing of whole BVL vs IFN [1, 3] [%] |
| --- | --- | --- | --- | --- | --- | --- | --- | --- | --- | --- | --- | --- | --- | --- |
| – | – | CC(C)Oc1ccc(-c2nc(-c3cccc4c3CC[C@@H]4NCCO)no2)cc1C#N [Ozanimod] | 55.1 | 24.5 | 30.1 | 58.3 | 31.9 | 26.6 | 61.4 | 34.3 | 12.3 | 83.8 | 38.5 | 32.5 |
| potent inhibition | 6.6 | CC(C)Oc1ccc(-c2nc(-c3cccc4c3CCC4=O)no2)cc1C#N [Compound 1, 2-isopropoxy-5-(3-(1-oxo-2,3-dihydro-1H-inden-4-yl)-1,2,4-oxadiazol-5-yl)benzonitrile] | – | – | – | – | – | – | – | – | – | – | – | – |
